Experimental data published in PubChem BioAssay (NCI).
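Grown in 96-well plates, cells were treated for 48 hours with each compound at five concentrations. Insufficient inhibition: endpoint recorded as highest concentration tested. GI50 marks 50% less growth. TGI marks complete inhibition of growth.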

Legend:
Assay in all cases: growth of human tumour cells (NCI), 48 h
CCRF-CEM leukemia = test system: CCRF-CEM leukemia
EKVX NSCLC = test system: EKVX NSCLC
HCT-116 colon = test system: HCT-116 colon
LOX IMVI melanoma = test system: LOX IMVI melanoma
MOLT-4 leukemia = test system: MOLT-4 leukemia
RPMI-8226 leukemia = test system: RPMI-8226 leukemia
SF-295 CNS = test system: SF-295 CNS
UACC-257 melanoma = test system: UACC-257 melanoma
HCT-15 colon = test system: HCT-15 colon
SR leukemia = test system: SR leukemia

Row | Compound | TGI (CCRF-CEM leukemia) | TGI (EKVX NSCLC) | TGI (HCT-116 colon) | TGI (LOX IMVI melanoma) | TGI (MOLT-4 leukemia) | TGI (RPMI-8226 leukemia) | TGI (SF-295 CNS) | TGI (UACC-257 melanoma) | TGI (HCT-15 colon) | TGI (SR leukemia) | GI50 (CCRF-CEM leukemia) | GI50 (HCT-116 colon) | GI50 (HCT-15 colon) | GI50 (LOX IMVI melanoma) | GI50 (MOLT-4 leukemia) | GI50 (RPMI-8226 leukemia) | GI50 (SR leukemia) | GI50 (UACC-257 melanoma) | GI50 (EKVX NSCLC) | GI50 (SF-295 CNS)
1 | CC(C)(C)C(=O)C1CC(=O)c2ccccc2C1=O (stereo unspecified) | > 100 µM | > 100 µM | 46.2 µM | > 100 µM | 75.9 µM | 64.8 µM | > 100 µM | 46.1 µM |  |  |  |  |  |  |  |  |  |  |  | 
2 | O=C1C(=O)C(Br)(Br)C(Br)=C1Br | 57.1 µM | 54.8 µM |  | 31.9 µM | 63 µM | 99.5 µM | > 100 µM | 43.6 µM | 41.9 µM |  |  |  |  |  |  |  |  |  |  | 
3 | COc1ccc(C(c2c(O)c3ccccc3n(C)c2=O)c2c(O)c3ccccc3n(C)c2=O)cc1 |  | > 100 µM | > 100 µM | > 100 µM | > 100 µM | > 100 µM | > 100 µM | 46.4 µM |  | > 100 µM |  |  |  |  |  |  |  |  |  | 
4 | COc1ccc(-c2nc(-c3nc4ccc(OC)cc4[nH]3)cc3c2[nH]c2ccccc23)cc1 | > 100 µM |  | > 100 µM | > 100 µM | > 100 µM | 2.86 µM |  | > 100 µM | > 100 µM | > 100 µM | 0.887 µM | 2.48 µM | 2.88 µM | 3.14 µM | 1.98 µM | 0.363 µM | 4.29 µM | 4.34 µM |  | 
5 | CCOC(=O)c1sc(Nc2ccc(Cl)cc2)nc1C | 9.37 µM | 5.52 µM |  | 2.86 µM | 6.92 µM | 5.65 µM | 3.57 µM | 4.67 µM | 3.92 µM |  | 2.64 µM |  | 1.62 µM | 1.49 µM | 1.79 µM | 1.83 µM |  | 2.11 µM | 0.969 µM | 1.69 µM
6 | COC(=O)C1=C(CO)C2C=CC1C2 (stereo unspecified) | > 100 µM | > 100 µM | > 100 µM | > 100 µM | > 100 µM | > 100 µM | > 100 µM | > 100 µM | > 100 µM |  |  |  |  |  |  |  |  |  |  | 
7 | O=c1c2ccccc2c2nc3ccccc3nc2n1C1CCCCC1 |  | > 100 µM | > 100 µM |  | > 100 µM | > 100 µM | > 100 µM | > 100 µM | > 100 µM | > 100 µM |  |  |  |  |  |  |  |  |  | 
8 | CCOC(=O)c1cn(Cc2ccccc2)c(=O)n1Cc1ccccc1 | > 100 µM | > 100 µM | > 100 µM | > 100 µM | > 100 µM | > 100 µM | > 100 µM | > 100 µM | > 100 µM |  |  |  |  |  |  |  |  |  |  | 
9 | O=C1CCC2(CC1)SCCCS2 | > 100 µM | > 100 µM |  | > 100 µM |  | > 100 µM | > 100 µM | > 100 µM | > 100 µM |  |  |  |  |  |  |  |  |  |  | 
10 | COc1ccc2c(c1)CC[C@@H]1[C@@H]2CC[C@]2(C)C(c3ccco3)=C(C=O)C[C@@H]12 | 4.85 µM | 48.7 µM | 12.8 µM | 23.8 µM | 38.6 µM | 32.7 µM | 12.8 µM | 44.6 µM | 26.7 µM |  | 1.86 µM | 2.95 µM | 4.19 µM | 6.89 µM | 7.27 µM | 3.89 µM |  | 21.7 µM | 20.1 µM | 3.4 µM
11 | COc1ccc(/C=C/c2n[nH]c3ccc(N4CCOC4=O)cc23)cc1 |  | 36.1 µM | 13.6 µM | 27.7 µM | 9.54 µM | 5.55 µM | 29.2 µM | 9.3 µM | 12.5 µM | 3.03 µM |  | 0.693 µM | 1.12 µM | 2.52 µM | 1.46 µM | 2.2 µM | 0.461 µM | 3.6 µM | 3.39 µM | 3.44 µM
12 | N#CCCN(c1ccc(-c2nnc(NC(=O)CNNC(=O)CC(=O)Nc3ccccc3)s2)cc1)S(=O)(=O)c1ccccc1 | > 100 µM | > 100 µM | > 100 µM | > 100 µM | > 100 µM | > 100 µM | > 100 µM | > 100 µM | > 100 µM |  |  |  |  |  |  |  |  |  |  | 
13 | COc1cc(-c2cc(-c3nc4ccc(Cl)cc4[nH]3)[nH]n2)cc(OC)c1OC | 7.56 µM |  | 12.2 µM |  | 4.82 µM | 4.21 µM | 11.2 µM | 7.55 µM | 13.2 µM | 37.6 µM | 2.48 µM | 3.45 µM | 2.9 µM |  | 2.02 µM | 1.65 µM | 3.32 µM | 2.6 µM |  | 2.35 µM
14 | C=C(C)[C@@H]1CC[C@]2(C)[C@H](CC[C@@H]3[C@H]4[C@H]5OC[C@@]4(CCC5(C)C)CC[C@]32C)[C@@]1(C)CCCN | > 100 µM | 3.31 µM |  | 0.489 µM | 7.86 µM | 5.09 µM | 3.22 µM | 3.73 µM | 2.99 µM |  | 2.44 µM |  | 1.59 µM | 0.0275 µM | 2.79 µM | 2.05 µM |  | 1.88 µM | 1.81 µM | 1.78 µM
